Literature values as cited in patent US6964953B2, “Methods for treating stress disorders using glucocorticoid receptor-specific antagonists” (Corcept Therapeutics, Inc., priority 2001, dated 2005).

Assays:
[1] = in one study; Kawai (1989)
[2] = biological target: T1, glucocorticoid (GR) receptor (Homo sapiens, UniProt P04150); details: result in words
T1 sequence (P04150 1-777): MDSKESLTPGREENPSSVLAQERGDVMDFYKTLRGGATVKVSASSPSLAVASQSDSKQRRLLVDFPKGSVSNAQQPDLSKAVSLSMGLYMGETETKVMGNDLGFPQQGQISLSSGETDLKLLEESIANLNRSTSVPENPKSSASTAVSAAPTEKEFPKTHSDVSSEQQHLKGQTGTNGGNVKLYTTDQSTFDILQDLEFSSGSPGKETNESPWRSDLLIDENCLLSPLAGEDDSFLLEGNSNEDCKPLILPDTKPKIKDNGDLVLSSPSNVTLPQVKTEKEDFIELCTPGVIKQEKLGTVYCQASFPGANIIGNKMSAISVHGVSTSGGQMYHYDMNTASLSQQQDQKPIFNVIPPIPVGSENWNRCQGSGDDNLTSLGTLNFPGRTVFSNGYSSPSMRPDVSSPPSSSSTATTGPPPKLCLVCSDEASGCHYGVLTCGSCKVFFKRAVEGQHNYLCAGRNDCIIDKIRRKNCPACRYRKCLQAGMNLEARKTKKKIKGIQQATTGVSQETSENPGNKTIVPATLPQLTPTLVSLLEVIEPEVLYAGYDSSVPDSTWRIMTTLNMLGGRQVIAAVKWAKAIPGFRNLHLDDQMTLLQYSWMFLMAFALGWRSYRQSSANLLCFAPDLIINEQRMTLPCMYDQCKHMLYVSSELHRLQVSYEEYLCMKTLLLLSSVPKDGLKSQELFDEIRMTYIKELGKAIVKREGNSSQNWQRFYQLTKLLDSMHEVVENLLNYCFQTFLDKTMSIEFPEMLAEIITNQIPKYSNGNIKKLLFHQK

[3] = system: rat hippocampus; details: Talmi et al. 1996
[4] = biological target: T2, progesterone receptor (Homo sapiens, UniProt P06401); details: result in words
T2 sequence (P06401 1-933): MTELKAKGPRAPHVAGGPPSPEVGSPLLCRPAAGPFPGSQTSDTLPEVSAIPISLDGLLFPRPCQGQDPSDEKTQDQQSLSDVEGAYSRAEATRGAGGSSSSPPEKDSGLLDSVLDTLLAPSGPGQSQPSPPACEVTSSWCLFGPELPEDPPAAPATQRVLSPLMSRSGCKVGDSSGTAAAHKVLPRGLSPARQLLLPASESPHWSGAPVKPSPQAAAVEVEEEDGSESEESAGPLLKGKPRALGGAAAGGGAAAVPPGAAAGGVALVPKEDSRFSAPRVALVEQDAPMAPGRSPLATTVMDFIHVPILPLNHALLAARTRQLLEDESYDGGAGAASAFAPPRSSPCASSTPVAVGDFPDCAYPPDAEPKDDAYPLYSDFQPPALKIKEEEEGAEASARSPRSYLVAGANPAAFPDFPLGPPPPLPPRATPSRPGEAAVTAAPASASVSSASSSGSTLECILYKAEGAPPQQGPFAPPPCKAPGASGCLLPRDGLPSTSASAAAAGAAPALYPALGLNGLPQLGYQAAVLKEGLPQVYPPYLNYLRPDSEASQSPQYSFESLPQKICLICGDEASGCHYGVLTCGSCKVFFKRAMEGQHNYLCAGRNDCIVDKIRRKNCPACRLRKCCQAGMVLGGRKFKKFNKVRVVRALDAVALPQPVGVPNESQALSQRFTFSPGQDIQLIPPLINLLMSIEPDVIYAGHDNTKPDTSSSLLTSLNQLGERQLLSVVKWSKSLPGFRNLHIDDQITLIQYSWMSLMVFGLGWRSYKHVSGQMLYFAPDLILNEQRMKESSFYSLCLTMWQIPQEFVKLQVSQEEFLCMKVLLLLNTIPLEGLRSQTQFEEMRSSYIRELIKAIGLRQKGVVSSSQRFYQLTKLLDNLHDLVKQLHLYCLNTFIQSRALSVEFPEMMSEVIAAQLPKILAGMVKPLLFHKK

[5] = system: mouse hippocampus neuronal cells; details: Behl et al. 1997

Structure (SMILES)	daily dose excreted in the urine [1]	GR antagonist activity [2]	abrogation of age-associated electrophysiological changes [3]	progesterone receptor antagonist activity [4]	protection against oxidative stress-induced neuronal cell death [5]
CC#C[C@]1(O)CC[C@H]2[C@@H]3CCC4=CC(=O)CCC4=C3[C@@H](c3ccc(N(C)C)cc3)C[C@@]21C [Mifepristone, 17-beta-hydroxy-11-beta-(4-dimethyl-aminophenyl)-17-alpha-(1-propynyl)-estra-4,9-dien-3-one]	less than 0.5%	powerful antagonist	effective at abrogating some of the age-associated electrophysiological changes	powerful antagonist	providing protection against oxidative stress-induced neuronal cell death
CC#C[C@]1(O)CC[C@H]2[C@@H]3CCC4=CC(=O)CCC4=C3[C@@H](c3ccc(OCCN(C)C)cc3)C[C@@]21C [RU009, 11-beta-(4-dimethyl-aminoethoxyphenyl)-17-alpha-(propynyl-17 beta-hydroxy-4,9-estradien-3-one)]		shown to have GR antagonist effects			
